According to patent publication US20230158034A1, “CO-TREATMENT WITH CDK4/6 AND CDK2 INHIBITORS TO SUPPRESS TUMOR ADAPTATION TO CDK2 INHIBITORS” (Pfizer Inc., priority 2020, published 2023):

Legend:
[1] = tested on: CDK2 activity (DHB sensor phosphorylation); test: DHB-based CDK2 activity sensor, single-cell time-lapse imaging (C/N ratio); parameters: species or system human
Description: (§1) The DHB sensor is localized to the nucleus when it is not phosphorylated. Upon phosphorylation, the nuclear localization signal is masked, the nuclear export signal is unmasked, and the sensor steadily translocates to the cytoplasm in response to increasing CDK2 activity (FIG. 1A). Thus, kinase activity can be quantified by the ratio of the cytoplasmic to nuclear fluorescence intensity (C/N ratio) of the DHB sensor. […] Asynchronously cycling cells were first imaged for approximately 20 hr in the absence of drug to establish the cell-cycle phase of each cell; the movie was then paused to add drug, and then imaging was continued for another 1-2 days. Because the cells were cycling asynchronously, all cell-cycle phases with one drug treatment were sampled. This allowed the present inventors to computationally isolate traces for cells that received drug at any time since the completion of anaphase.
(§2) Cells were seeded at least 24 hr prior to imaging in phenol-red-free full-growth medium in glass-bottom 96-well plates (CellVis P96-1.5H-N) that were coated with collagen prior to seeding. The seeding density was chosen such that the cells would remain sub-confluent until the end of the imaging period. Cells were first imaged for 16-20 hr in full-growth media without drug. The movie was then briefly paused and the full-growth media was replaced with full-growth media containing drug at the desired concentration. The plate was then re-inserted into the microscope and aligned to its prior position and imaging was continued for an additional 24-48 hr. Images were acquired every 12 min (for MCF10A or RPE-hTERT) or every 20 min (for MCF7 or OVCAR3) on a Nikon Eclipse Ti or Ti2 microscope with a 10×0.45 NA objective in a humidified, 37° C. chamber at 5% CO2. Exposure times for all movies for all channels were kept under 500 ms per timepoint to minimize phototoxicity. Cell tracking was performed using published MATLAB scripts (Cappell et al., 2016), as described previously (Arora et al., 2017). The tracking code is available for download at https://github.com/scappell/Cell_tracking. Cell counts over time were obtained by counting the number of segmented nuclei in each frame of the movie.
Asynchronously cycling cells that divided and received drug treatments during the imaging period were initially segmented into categories based on the cells' time of anaphase relative to the time of drug addition. These cells were then additionally subcategorized based on their DHB cytoplasmic/nuclear (C/N) ratio after the mitotic event. C/N ratio was calculated by quantifying the ratio of cytoplasmic to nuclear mean DHB fluorescence, with the cytoplasmic component calculated as the mean of the top 50th percentile of a ring of pixels outside of the nuclear mask.
Cells were classified as CDK2^inc if the DHB C/N ratio was above 0.5 units 3 hr after anaphase, otherwise they were classified as CDK2^low. Figure legends indicate whether only CDK2^inc cells or whether all cells are plotted. The median of the single-cell traces in a subcategory was then used to create median trace with 95% confidence interval representative of the particular subcategory. All cell trace analysis was done using custom MATLAB scripts and code is available upon request.

[2] = tested on: MCF10A, RPE-hTERT, MCF7 and OVCAR3 cells; test: Cell-cycle progression, mitosis and proliferation by time-lapse imaging; assay type: cell-based, human; conditions: 1 μM palbociclib (after the upcoming mitosis) or 9 μM RO3306 (toward end of cell cycle), MCF10A
Description: as §1, §2

[3] = tested on: Rb, Nucleolin, Cdc6 and Nbs1 phosphorylation; test: Immunofluorescence and western blotting of endogenous CDK2 substrates; assay type: cell-based, human; conditions: 10 μM 3 MB-PP1 for 1 hr, RPE-hTERT CDK2^F80G/F80G cells
Protocol: Cells were fixed for 15 minutes with freshly prepared 4% paraformaldehyde, washed twice with PBS, and incubated with a blocking buffer (3% BSA in PBS) for 1 hr at room temperature. Permeabilization was carried out using 0.2% Triton-X 100 for 15 min at 4° C. Primary antibody was diluted in blocking buffer and incubated with cells overnight at 4° C. followed by three washes with 1×PBS. Secondary antibodies conjugated to Alexa Fluor 488, Alexa Fluor 546 or Alexa Fluor 647 were incubated for 1 hr followed by three washes with 1×PBS. DNA was stained using Hoechst 33342 dye for 10 minutes at 1:10000 (ThermoFisher H3570). Images were acquired on a Nikon Eclipse Ti or Ti2 microscope with a 10×0.45 NA objective. DNA content was determined by taking the integrated intensity of each cell's Hoechst signal. Cells were delineated as 3-4N DNA content by plotting a histogram of DNA content and drawing a threshold and the end of the 2N peak.
Lysates were prepared using 1×LDS sample buffer (ThermoFisher NP007) using equal numbers of cells. Proteins were separated using NuPAGE precast polyacrylamide gels (ThermoFisher NP0301). Total protein was quantified using Azure Red Dye (Azure Biosystems AC2124) and was used to normalize the signal from antibodies of interest. Primary antibodies used are specified under the “Antibodies” section. HRP-conjugated or IR700 and IR800 labeled fluorescent secondary antibodies were used for visualization (Cell Signaling Technology 7074 and 7076).

## O=C1NC(=NCc2cccs2)S/C1=C\c1ccc2ncccc2c1 [RO3306]
[1]; 9 μM RO3306
  DHB phosphorylation in RPE-hTERT CDK2^F80G/F80G cells as compared to wild-type RPE-hTERT cells: much greater drop in DHB phosphorylation
[1]; 9 μM RO3306, MCF10A
  effect on DHB sensor phosphorylation: minimal immediate effect
[2]
  cell-cycle arrest: G2 arrest

## Cc1cccc(Cc2nn(C(C)(C)C)c3ncnc(N)c23)c1 [3 MB-PP1, 1-(tert-butyl)-3-(3-methylbenzyl)-1H-pyrazolo[3,4-d]pyrimidin-4-amine]
[3]
  Nbs1 phosphorylation: loss of Nbs1 phosphorylation
[1]; 10 μM 3 MB-PP1, RPE-hTERT CDK2^F80G/F80G cells
  DHB sensor phosphorylation: reduction in DHB sensor phosphorylation that quickly rebounded
[1]; 10 μM 3 MB-PP1, wild-type RPE-hTERT cells
  DHB sensor phosphorylation: not affected
